Key:
A673 cells = assay: Inhibition of proliferation of A673 cells (CyQUANT, 72 hour); assay type: cell-based, human; details: read-out: Inhibition of Proliferation of A673 Cells (calculated IC50)
Method: A673 Cells: A673 cells are a cell line derived from human muscle Ewing's sarcoma. Representative compounds of the invention were tested at different concentrations (from 4 μM to […]; 0.5 log serial dilutions) for their ability to inhibit the proliferation of A673 cells. Known CDK inhibitors dinaciclib or N-((1S,3R)-3-((5-chloro-4-(1H-indol-3-yl)pyrimidin-2-yl)amino)cyclohexyl)-5-((E)-4-(dimethylamino)but-2-enamido)picolinamide and triptolide were used as positive controls. Cells were grown in Dulbecco's Modified Eagle's Medium, +10% FBS+1 mM Sodium Pyruvate. The cells were cultured at 37° C. in a humidified chamber in the presence of 5% CO2. Proliferation assays were conducted over a 72 hour time period. CyQUANT® (Life Technologies, Chicago, Ill. USA) was used to assess the anti-proliferative effects of the compounds following manufacturer's directions and utilizing the reagents supplied with the CyQUANT® kit.

CDK2/Cyclin E1 complex = CDK2/Cyclin E1 complex (Homo sapiens, UniProt P24941); assay: CDK2 kinase inhibition assay (Caliper/LabChip EZ Reader); assay type: biochemical; details: CDK2/Cyclin E1 0.5 nM, ATP 2 mM, 35 min at 27° C.
Method: (§1) Compounds of the invention were assayed for inhibition of CDK7, CDK9, CDK12, and CDK2 activity at Biortus Biosciences (Jiangyin, Jiangsu Province, P.R. of China) using kinase assays for each CDK developed with a Caliper/LabChip EZ Reader (Perkin Elmer, Waltham, Mass.).
(§2) Furthermore, the CDK9 inhibition assay used CDK9/Cyclin T1 complex (8 nM) and “5-FAM-CDK9tide” peptide substrate (2 μM, synthesized fluorophore-labeled peptide with the following sequence: 5-FAM-GSRTPMY-NH2 where 5-FAM is defined above and NH2 signifies a C-terminal amide) with 10 mM MgCl2 in the buffer composition listed above. The CDK12 inhibition assay used CDK12 (aa686-1082)/Cyclin K complex (50 nM) and “5-FAM-CDK9tide” (2 μM) as defined above, with 2 mM MgCl2 in the buffer composition above. Additionally, the CDK2 inhibition assay used CDK2/Cyclin E1 complex (0.5 nM) and “5-FAM-CDK7tide” (2 μM) as defined above, with 2 mM MgCl2 in the buffer composition listed above.
(§3) The incubation period at 27° C. for each CDK inhibition assay was chosen such that the fraction of phosphorylated peptide product produced in each assay, relative to the total peptide concentration, was approximately 20% (±5%) for the uninhibited kinase (35 min. for CDK7, 35 min. for CDK2, 3 hr. for CDK12, 15 min. for CDK9).

CDK9/Cyclin T1 complex = CDK9/Cyclin T1 complex (Homo sapiens, UniProt P50750); assay: CDK9 kinase inhibition assay (Caliper/LabChip EZ Reader); assay type: biochemical; details: CDK9/Cyclin T1 8 nM, ATP 2 mM, 15 min at 27° C.
Sequence of CDK9/Cyclin T1 complex (P50750 whole entry): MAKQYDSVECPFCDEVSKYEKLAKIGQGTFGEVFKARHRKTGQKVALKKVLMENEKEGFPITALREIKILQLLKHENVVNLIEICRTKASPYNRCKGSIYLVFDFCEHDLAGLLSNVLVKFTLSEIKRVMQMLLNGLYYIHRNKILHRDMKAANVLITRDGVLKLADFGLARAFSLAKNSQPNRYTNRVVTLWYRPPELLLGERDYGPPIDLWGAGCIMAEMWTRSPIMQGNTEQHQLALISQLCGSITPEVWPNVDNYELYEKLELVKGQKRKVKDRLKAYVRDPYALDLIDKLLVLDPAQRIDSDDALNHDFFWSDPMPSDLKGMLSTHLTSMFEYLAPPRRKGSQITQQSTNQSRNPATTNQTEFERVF
Sequence of CDK9/Cyclin T1 complex (O60563 whole entry partner): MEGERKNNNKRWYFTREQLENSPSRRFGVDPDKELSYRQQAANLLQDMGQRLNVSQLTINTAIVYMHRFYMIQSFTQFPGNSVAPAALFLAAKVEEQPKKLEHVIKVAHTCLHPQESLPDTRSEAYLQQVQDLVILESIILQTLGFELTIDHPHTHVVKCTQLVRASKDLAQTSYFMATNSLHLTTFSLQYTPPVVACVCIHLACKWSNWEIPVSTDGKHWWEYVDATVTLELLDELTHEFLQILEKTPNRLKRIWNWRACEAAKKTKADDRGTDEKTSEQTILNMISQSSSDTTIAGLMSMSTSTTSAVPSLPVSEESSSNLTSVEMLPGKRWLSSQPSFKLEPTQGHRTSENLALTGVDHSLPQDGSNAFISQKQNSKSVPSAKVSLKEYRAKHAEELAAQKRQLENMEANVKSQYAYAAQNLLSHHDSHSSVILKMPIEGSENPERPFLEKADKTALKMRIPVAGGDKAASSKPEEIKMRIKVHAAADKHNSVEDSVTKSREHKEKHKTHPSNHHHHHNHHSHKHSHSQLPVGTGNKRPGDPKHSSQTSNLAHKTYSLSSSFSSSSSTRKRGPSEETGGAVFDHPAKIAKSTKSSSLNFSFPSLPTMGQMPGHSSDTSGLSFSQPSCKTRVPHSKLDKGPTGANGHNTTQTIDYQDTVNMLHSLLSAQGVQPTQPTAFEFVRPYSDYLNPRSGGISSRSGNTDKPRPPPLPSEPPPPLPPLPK
Method: as §1, §2, §3

[1] = molecular target: CDK7/Cyclin H/MAT1 complex (Homo sapiens, UniProt P50613); assay: CDK7 kinase inhibition assay (Caliper/LabChip EZ Reader); assay type: biochemical; details: CDK7/Cyclin H/MAT1 6 nM, ATP 2 mM, 35 min at 27° C.
Sequence of CDK7/Cyclin H/MAT1 complex (P50613 whole entry): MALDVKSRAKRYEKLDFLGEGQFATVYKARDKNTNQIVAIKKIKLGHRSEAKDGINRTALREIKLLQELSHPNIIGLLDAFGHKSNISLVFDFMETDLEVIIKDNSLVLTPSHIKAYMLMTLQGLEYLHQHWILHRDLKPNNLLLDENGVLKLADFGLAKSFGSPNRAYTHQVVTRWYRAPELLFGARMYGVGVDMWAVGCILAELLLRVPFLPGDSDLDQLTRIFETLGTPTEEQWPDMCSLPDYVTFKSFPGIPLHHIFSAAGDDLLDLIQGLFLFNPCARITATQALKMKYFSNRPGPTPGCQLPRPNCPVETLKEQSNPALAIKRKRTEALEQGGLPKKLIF
Sequence of CDK7/Cyclin H/MAT1 complex (P51946 whole entry partner): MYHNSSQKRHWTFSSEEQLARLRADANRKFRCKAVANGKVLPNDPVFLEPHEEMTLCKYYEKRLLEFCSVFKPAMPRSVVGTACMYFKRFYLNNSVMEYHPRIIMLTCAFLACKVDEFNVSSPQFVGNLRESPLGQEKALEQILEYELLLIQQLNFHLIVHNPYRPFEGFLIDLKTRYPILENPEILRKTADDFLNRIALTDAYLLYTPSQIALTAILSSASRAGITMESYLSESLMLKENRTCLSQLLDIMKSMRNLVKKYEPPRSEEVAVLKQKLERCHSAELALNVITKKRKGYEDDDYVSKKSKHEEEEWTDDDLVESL
Sequence of CDK7/Cyclin H/MAT1 complex (P51948 whole entry partner): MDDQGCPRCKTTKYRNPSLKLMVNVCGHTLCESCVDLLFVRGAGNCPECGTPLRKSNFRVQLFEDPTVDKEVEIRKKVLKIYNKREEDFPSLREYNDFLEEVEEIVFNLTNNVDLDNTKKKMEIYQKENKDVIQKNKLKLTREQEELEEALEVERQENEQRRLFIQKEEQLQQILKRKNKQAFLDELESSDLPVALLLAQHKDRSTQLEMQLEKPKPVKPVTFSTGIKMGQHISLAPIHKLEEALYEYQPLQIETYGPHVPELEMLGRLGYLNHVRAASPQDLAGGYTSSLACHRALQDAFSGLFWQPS
Method: as §1, §2, §3

[2] = molecular target: T1, CDK12 (aa686-1082)/Cyclin K complex (Homo sapiens, UniProt Q9NYV4); assay: CDK12 kinase inhibition assay (Caliper/LabChip EZ Reader); assay type: biochemical; details: CDK12 (aa686-1082)/Cyclin K 50 nM, ATP 2 mM, 3 hr at 27° C.
T1 construct: CDK12 (aa686-1082)/Cyclin K complex
T1 sequence (Q9NYV4 686-1082): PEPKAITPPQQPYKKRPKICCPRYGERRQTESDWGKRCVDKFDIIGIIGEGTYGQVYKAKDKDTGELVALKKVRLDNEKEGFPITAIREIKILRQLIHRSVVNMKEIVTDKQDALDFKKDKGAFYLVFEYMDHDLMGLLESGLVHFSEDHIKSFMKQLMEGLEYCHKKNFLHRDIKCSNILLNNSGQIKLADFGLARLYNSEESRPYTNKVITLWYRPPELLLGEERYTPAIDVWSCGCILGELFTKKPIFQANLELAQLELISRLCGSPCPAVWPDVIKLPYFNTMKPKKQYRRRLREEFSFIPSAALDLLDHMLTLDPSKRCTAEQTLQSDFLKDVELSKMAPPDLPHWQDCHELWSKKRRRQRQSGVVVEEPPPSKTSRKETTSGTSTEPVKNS
T1 sequence (O75909 whole entry partner, the tested form may be a part): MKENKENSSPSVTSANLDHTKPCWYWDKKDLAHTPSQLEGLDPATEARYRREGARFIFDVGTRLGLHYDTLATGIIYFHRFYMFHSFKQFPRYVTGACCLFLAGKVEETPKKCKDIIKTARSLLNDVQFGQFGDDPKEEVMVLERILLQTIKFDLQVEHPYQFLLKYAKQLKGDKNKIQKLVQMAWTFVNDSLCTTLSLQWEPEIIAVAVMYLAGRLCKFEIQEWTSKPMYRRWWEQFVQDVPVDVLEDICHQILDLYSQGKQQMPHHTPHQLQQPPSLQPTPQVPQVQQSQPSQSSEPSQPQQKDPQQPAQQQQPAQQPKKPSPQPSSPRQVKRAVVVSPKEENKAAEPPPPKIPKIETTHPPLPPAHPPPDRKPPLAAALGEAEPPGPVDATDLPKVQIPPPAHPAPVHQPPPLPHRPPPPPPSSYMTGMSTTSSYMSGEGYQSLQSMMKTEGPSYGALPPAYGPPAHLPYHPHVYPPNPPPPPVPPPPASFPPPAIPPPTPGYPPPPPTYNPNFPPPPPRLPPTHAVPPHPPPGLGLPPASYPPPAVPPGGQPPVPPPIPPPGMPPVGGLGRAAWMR
Method: as §1, §2, §3

SMILES	IC50 (A673 cells) [nM]	IC50 (CDK2/Cyclin E1 complex) [nM]	IC50 (CDK9/Cyclin T1 complex) [nM]	IC50 [1] [nM]	IC50 [2] [nM]
FC(F)(F)c1cnc(NC2CCCNC2)nc1-c1c[nH]c2cc(-c3ncc[nH]3)ccc12 (stereo not drawn) [Compound 202]	20 to 200	200 to 5000	200 to 5000	< 20	≥ 5000
OC1CNCC(Nc2ncc(C(F)(F)F)c(-c3c[nH]c4ccccc34)n2)C1 (stereo not drawn) [Compound 203]	< 20	200 to 5000	200 to 5000	< 20	200 to 5000
O=C(c1ccc2c(-c3nc(NC4CCCNC4)ncc3C(F)(F)F)c[nH]c2c1)N1CCC(O)C1 (stereo not drawn) [Compound 204]	200 to 5000	≥ 5000	≥ 5000	< 20	200 to 5000
O=C(c1ccc2c(-c3nc(N[C@H]4CCCNC4)ncc3C(F)(F)F)c[nH]c2c1)N1CC[C@@H](O)C1 [Compound 205]	200 to 5000	≥ 5000	≥ 5000	< 20	200 to 5000
FCCc1cnc(NC2CCCNC2)nc1-c1c[nH]c2ccccc12 (stereo not drawn) [Compound 206]	200 to 5000	≥ 5000	200 to 5000	20 to 200	200 to 5000
OC1CCC(c2cccc3c(-c4nc(NC5CCCNC5)ncc4C(F)(F)F)c[nH]c23)CC1 (stereo not drawn) [Compound 207]	< 20	200 to 5000	200 to 5000	< 20	200 to 5000
CC(=O)c1cnc(NC2CCCNC2)nc1-c1c[nH]c2ccccc12 (stereo not drawn) [Compound 208]	20 to 200	≥ 5000	≥ 5000	20 to 200	200 to 5000
CC1(C)CCNC[C@@H]1Nc1ncc(C(F)(F)F)c(-c2c[nH]c3ccccc23)n1 [Compound 209]	20 to 200	≥ 5000	≥ 5000	200 to 5000	≥ 5000
CC1(C)CCNC[C@H]1Nc1ncc(C(F)(F)F)c(-c2c[nH]c3ccccc23)n1 [Compound 210]	200 to 5000	≥ 5000	≥ 5000	200 to 5000	≥ 5000
CCC1CCC(Nc2ncc(C(F)(F)F)c(-c3c[nH]c4ccccc34)n2)CN1 (stereo not drawn) [Compound 211]	20 to 200	200 to 5000	200 to 5000	20 to 200	200 to 5000
FC(F)(F)c1cnc(NC2CCC3(CC3)NC2)nc1-c1c[nH]c2ccccc12 (stereo not drawn) [Compound 212]	< 20	200 to 5000	200 to 5000	< 20	200 to 5000
FC(F)(F)c1cnc(NC2CCCNC2)nc1-c1c[nH]c2cc(N3CCCC3)ccc12 (stereo not drawn) [Compound 213]	20 to 200	≥ 5000	≥ 5000	20 to 200	200 to 5000
CC(C)(O)Cn1cc(-c2ccc3c(-c4nc(N[C@H]5CCCNC5)ncc4C(F)(F)F)c[nH]c3c2)cn1 [Compound 214]	20 to 200	200 to 5000	200 to 5000	20 to 200	200 to 5000
FC(F)(F)c1cnc(N[C@@H]2CNCc3ccccc32)nc1-c1c[nH]c2ccccc12 [Compound 215]	200 to 5000	≥ 5000	≥ 5000	20 to 200	≥ 5000
FC(F)(F)c1cnc(NC2CNCc3ccccc32)nc1-c1c[nH]c2ccccc12 (stereo not drawn) [Compound 216]	200 to 5000	200 to 5000	≥ 5000	200 to 5000	≥ 5000
CCC1CCC(Nc2ncc(C(F)(F)F)c(-c3c[nH]c4ccccc34)n2)CN1 (stereo not drawn) [Compound 217]	20 to 200	200 to 5000	200 to 5000	< 20	200 to 5000
C=Cc1cnc(NC2CCCNC2)nc1-c1c[nH]c2ccccc12 (stereo not drawn) [Compound 218]	20 to 200	200 to 5000	200 to 5000	< 20	200 to 5000
CS(=O)(=O)Cc1ccc2c(-c3nc(NC4CCCNC4)ncc3C(F)(F)F)c[nH]c2c1 (stereo not drawn) [Compound 219]	20 to 200	200 to 5000	200 to 5000	< 20	200 to 5000

From patent US20230000870A1, “METHODS OF TREATING CANCER IN BIOMARKER-IDENTIFIED PATIENTS WITH INHIBITORS OF CYCLIN-DEPENDENT KINASE 7 (CDK7)” (Syros Pharmaceuticals, Inc., priority 2019, published 2023)
